Reference: publication PMC3086245 (Emerging Infectious Diseases, 2010)

How the values were obtained:
[1] = target: NA of oseltamivir-resistant influenza viruses A (H1N1) (ORVs) with H275Y (Influenza A virus (H1N1), UniProt E3JK96); type: biochemical
[2] = test system: influenza viruses A (H1N1) isolates, H275Y on N1 NA protein; set-up: species or system influenza virus A (H1N1)

Structure (SMILES) | sensitivity of ORVs to the drug (in words) [1] | susceptibility to oseltamivir (in words) [2]
CC(=O)N[C@H]1[C@H]([C@H](O)[C@H](O)CO)OC(C(=O)O)=C[C@@H]1N=C(N)N [Zanamivir, zanamivir] | sensitive | 
CCOC(=O)C1=C[C@@H](OC(CC)CC)[C@H](NC(C)=O)[C@@H](N)C1 [Oseltamivir, oseltamivir] |  | resistant
